# Experimental data: patent US10239843B2 (CANCER RESEARCH TECHNOLOGY LIMITED, priority 2014, dated 2019)
# Target: Human Full Length PARG (Homo sapiens (Human), UniProt Q86W56)
# Assay: PARG enzyme assay (TR-FRET)
# Format: biochemical
# Settings: read-out: PARG Biochem IC50
# Human Full Length PARG, sequence (Q86W56 whole entry): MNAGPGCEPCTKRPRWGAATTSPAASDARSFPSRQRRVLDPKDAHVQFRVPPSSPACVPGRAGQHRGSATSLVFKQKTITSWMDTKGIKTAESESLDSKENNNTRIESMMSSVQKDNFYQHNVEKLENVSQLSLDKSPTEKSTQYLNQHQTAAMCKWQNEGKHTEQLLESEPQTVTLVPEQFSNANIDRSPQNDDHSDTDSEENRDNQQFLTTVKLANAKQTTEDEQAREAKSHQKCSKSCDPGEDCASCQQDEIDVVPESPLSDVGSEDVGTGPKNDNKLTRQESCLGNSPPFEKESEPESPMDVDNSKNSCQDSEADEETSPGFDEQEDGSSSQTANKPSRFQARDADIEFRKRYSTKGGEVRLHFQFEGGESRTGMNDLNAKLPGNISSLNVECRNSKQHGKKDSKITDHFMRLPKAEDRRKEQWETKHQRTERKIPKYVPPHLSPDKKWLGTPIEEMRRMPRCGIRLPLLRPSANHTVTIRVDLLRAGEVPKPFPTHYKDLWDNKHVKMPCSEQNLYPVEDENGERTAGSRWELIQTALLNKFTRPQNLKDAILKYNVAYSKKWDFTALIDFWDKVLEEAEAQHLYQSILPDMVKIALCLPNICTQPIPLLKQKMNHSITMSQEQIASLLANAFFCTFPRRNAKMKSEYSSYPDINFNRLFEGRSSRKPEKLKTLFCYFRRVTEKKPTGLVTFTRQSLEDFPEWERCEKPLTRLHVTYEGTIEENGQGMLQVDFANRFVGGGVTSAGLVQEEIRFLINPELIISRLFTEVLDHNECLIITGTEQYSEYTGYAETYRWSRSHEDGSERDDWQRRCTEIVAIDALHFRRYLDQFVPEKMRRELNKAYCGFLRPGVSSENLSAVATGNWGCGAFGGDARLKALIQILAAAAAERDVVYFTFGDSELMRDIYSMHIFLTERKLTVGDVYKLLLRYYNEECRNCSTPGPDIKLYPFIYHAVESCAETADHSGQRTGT
row,IC50,Compound
1,1.74 µM,"Cn1c(=O)n(CC(=O)c2ccncc2)c(=O)c2cc(S(=O)(=O)NC3(C)CC3)ccc21 [Example 528, 1-Methyl-N-(1-methylcyclopropyl)-2,4-dioxo-3-[2-oxo-2-(4-pyridyl)ethyl]quinazoline-6-sulfonamide]"
2,2.46 µM,"Cn1cnnc1Cn1c(=O)c2cc(S(=O)(=O)NC3(C)CC3)ccc2n(C)c1=O [Example 499, 1-Methyl-N-(1-methylcyclopropyl)-3-[(4-methyl-1,2,4-triazol-3-yl)methyl]-2,4-dioxo-quinazoline-6-sulfonamide]"
3,7.07 µM,"CC1(NS(=O)(=O)c2ccc3[nH]c(=O)n(CCc4ccccn4)c(=O)c3c2)CC1 [Example 495, N-(1-Methylcyclopropyl)-2,4-dioxo-3-[2-(2-pyridyl)ethyl]-1H-quinazoline-6-sulfonamide]"
4,1.05 µM,"Cn1c(=O)n(CC(=O)c2cccs2)c(=O)c2cc(S(=O)(=O)NC3(C)CC3)ccc21 [Example 529, 1-Methyl-N-(1-methylcyclopropyl)-2,4-dioxo-3-[2-oxo-2-(2-thienyl)ethyl]quinazoline-6-sulfonamide]"

# Same assay, conditions: read-out: PARG Biochem IC50 Geomean
row,Compound,IC50
1,Cn1c(=O)c2cc(S(=O)(=O)NC3(C)CC3)ccc2n(Cc2noc(C(C)(C)C)n2)c1=O [Example 119],1.42 µM
2,Cn1c(=O)c2cc(S(=O)(=O)NC3(C)CC3)ccc2n(CC(=O)c2ccc(N3CCCC3)cc2)c1=O [Example 117],4.81 µM
3,CCn1c(=O)n(C)c(=O)c2cc(S(=O)(=O)NC3(C)CC3)ccc21 [Example 9],4.11 µM
4,Cn1c(=O)c2cc(S(=O)(=O)NC3(C)CC3)ccc2n(Cc2nc3ccccc3[nH]2)c1=O [Example 116],1.05 µM
5,Cn1c(=O)n(Cc2cccnc2)c(=O)c2cc(S(=O)(=O)NC3(C)CC3)ccc21 [Example 30],2.55 µM
6,Cn1c(=O)c2cc(S(=O)(=O)NC3(C)CC3)ccc2n(Cc2ccncc2)c1=O [Example 84],2.37 µM
7,Cn1c(=O)n(Cc2cncs2)c(=O)c2cc(S(=O)(=O)NC3(C)CC3)ccc21 [Example 147],1.21 µM
8,Cc1cc(Cn2cnc3ccc(S(=O)(=O)NC4(C)CC4)cc3c2=O)on1 [Example 210],1.23 µM
9,Cn1c(=O)c2cc(S(=O)(=O)NC3(C)CC3)ccc2n(CC2(C)COC2)c1=O [Example 42],2.45 µM
10,"Cn1c(=O)c(=O)n(Cc2ccccc2)c2ccc(S(=O)(=O)NC3(C)CC3)cc21 [Example 40, 1-Benzyl-4-methyl-N-(1-methylcyclopropyl)-2,3-dioxo-quinoxaline-6-sulfonamide]",2.79 µM
11,Cc1cc(COc2nc3ccc(S(=O)(=O)NC4(C)CC4)cc3c(=O)n2Cc2c(C)noc2C)n(C)n1 [Example 167],0.7 µM
12,Cn1c(=O)c2cc(S(=O)(=O)NC3(C)CC3)ccc2n(Cc2c(F)cccc2F)c1=O [Eample 75],0.714 µM
13,Cn1c(=O)n(Cc2cnn(CC3CC3)c2)c(=O)c2cc(S(=O)(=O)NC3(C)CC3)ccc21 [Example 218],0.681 µM
14,Cn1c(=O)c2cc(S(=O)(=O)NC3(C)CC3)ccc2n(CCC2CC2)c1=O [Example 43],1.17 µM
15,Cc1cc(Cn2c(=O)c3cc(S(=O)(=O)NC4(C)CC4)cnc3n(C)c2=O)on1 [Example 205],2.6 µM
16,Cc1nc2ccc(S(=O)(=O)NC3(C)CC3)cc2c(=O)n1C [Example 51],4.16 µM
17,Cc1ccc(Cn2c(=O)n(C)c(=O)c3cc(S(=O)(=O)NC4(C)CC4)ccc32)cc1 [Example 58],1.57 µM
18,CCn1c(=O)c2cc(S(=O)(=O)NC3(C)CC3)ccc2n(CC2CCCCC2)c1=O [Example 13],3.1 µM
19,COc1cc(Cn2c(=O)n(C)c(=O)c3cc(S(=O)(=O)NC4(C)CC4)ccc32)cc(OC)c1 [Example 78],0.621 µM
20,Cn1c(=O)c2cc(S(=O)(=O)NC3(C)CC3)ccc2n(CC(=O)Nc2ccccc2)c1=O [Example 92],4.13 µM

row,Compound,IC50
1,Cn1c(=O)c2cc(S(=O)(=O)NC3(C)CC3)ccc2n(CC(=O)c2ccc(O)cc2)c1=O [Example 107],8.94 µM
2,Cc1nc(-c2ccccc2)c(Cn2c(=O)n(C)c(=O)c3cc(S(=O)(=O)NC4(C)CC4)ccc32)s1 [Example 134],0.76 µM
3,Cc1noc(C)c1Cn1c(=O)n(C)c(=O)c2cc(S(=O)(=O)NC3(C)CC3)ccc21 [Example 121],2.54 µM
4,Cc1cc(Cn2c(=O)n(C)c(=O)c3cc(S(=O)(=O)NC4(C)CC4)ccc32)no1 [Example 105],1.43 µM
5,Cn1cc(NC(=O)Cn2c(=O)n(C)c(=O)c3cc(S(=O)(=O)NC4(C)CC4)ccc32)cn1 [Example 106],3.88 µM
6,CC(C)Cc1nc2ccc(S(=O)(=O)NC3(C)CC3)cc2c(=O)n1C [Example 81],1.84 µM
7,Cn1c(=O)n(CC2CC2(F)F)c(=O)c2cc(S(=O)(=O)NC3(C)CC3)ccc21 (centres unmarked) [Example 50],3.41 µM
8,Cc1cccc(Cn2c(=O)n(C)c(=O)c3cc(S(=O)(=O)NC4(C)CC4)ccc32)c1 [Example 57],1.11 µM
9,CC1(NS(=O)(=O)c2ccc3[nH]c(=O)[nH]c(=O)c3c2)CC1 [Example 1],9.17 µM
10,Cn1c(=O)n(Cc2cnn(Cc3ccccc3)c2)c(=O)c2cc(S(=O)(=O)NC3(C)CC3)ccc21 [Example 215],0.592 µM
11,"Cn1c(=O)[nH]c2cc(F)c(S(=O)(=O)NC3(C)CC3)cc2c1=O [Example 211, 7-Fluoro-3-methyl-N-(1-methylcyclopropyl)-2,4-dioxo-1H-quinazoline-6-sulfonamide]",1.56 µM
12,Cc1nc(C(F)(F)F)c(Cn2c(=O)c3cc(S(=O)(=O)NC4(C)CC4)ccc3n(C)c2=O)s1 [Example 179],0.725 µM
13,CCn1c(=O)c2cc(S(=O)(=O)NC3(C)CC3)ccc2n(CC)c1=O [Example 4],1.47 µM
14,CCn1c(=O)c2cc(S(=O)(=O)NC3(C)CC3)ccc2n(CCOC)c1=O [Example 17],1.57 µM
15,CC#CCn1c(=O)n(C)c(=O)c2cc(S(=O)(=O)NC3(C)CC3)ccc21 [Example 136],1.11 µM
16,Cn1c(=O)c2cc(S(=O)(=O)NC3(C)CC3)ccc2n(Cc2ccccc2F)c1=O [Example 65],1.45 µM
17,Cn1c(=O)c2cc(S(=O)(=O)NC3(C)CC3)ccc2n(Cc2cscn2)c1=O [Example 148],0.855 µM
18,CCN(CC)c1ccc(C(=O)Cn2c(=O)c3cc(S(=O)(=O)NC4(C)CC4)ccc3n(C)c2=O)cc1 [Example 110],6.7 µM
19,COc1ccccc1Cn1c(=O)n(C)c(=O)c2cc(S(=O)(=O)NC3(C)CC3)ccc21 [Example 59],3.24 µM
20,Cn1c(-c2ccccc2)nc2ccc(S(=O)(=O)NC3(C)CC3)cc2c1=O [Example 97],2.19 µM

# Continued, values first:
row,IC50,Compound
1,0.871 µM,COc1cccc(Cc2nn(Cc3cc(C)no3)c(=O)c3cc(S(=O)(=O)NC4(C)CC4)ccc23)c1 [Example 315]
2,0.523 µM,Cc1cc(Cn2c(=O)c3cc(S(=O)(=O)NC4(C)CC4)ccc3n(CC(C)O)c2=O)on1 (centres unmarked) [Example 338]
3,4.12 µM,"CC1(NS(=O)(=O)c2ccc3[nH]c(=O)n(C4CC4)c(=O)c3c2)CC1 [Example 240, 3-Cyclopropyl-N-(1-methylcyclopropyl)-2,4-dioxo-1H-quinazoline-6-sulfonamide]"
4,1.11 µM,"Cc1cc(Cn2nc(Cl)c3ccc(S(=O)(=O)NC4(C)CC4)cc3c2=O)on1 [Example 262, 1-Chloro-N-(1-methylcyclopropyl)-3-[(3-methylisoxazol-5-yl)methyl]-4-oxo-phthalazine-6-sulfonamide]"
5,2.52 µM,Cc1cc(Cn2nc(C3CCCC3)c3ccc(S(=O)(=O)NC4(C)CC4)cc3c2=O)on1 [Example 309]
6,7.47 µM,"CC1(NS(=O)(=O)c2ccc3[nH]c(=O)n(CC(N)=O)c(=O)c3c2)CC1 [Example 223, 2-[6-[(1-Methylcyclopropyl)sulfamoyl]-2,4-dioxo-1H-quinazolin-3-yl]acetamide]"
7,0.638 µM,Cc1cc(Cn2nc(N(C)C)c3ccc(S(=O)(=O)NC4(C)CC4)cc3c2=O)on1 [Example 282]
8,0.666 µM,"CNc1nn(Cc2cc(C)no2)c(=O)c2cc(S(=O)(=O)NC3(C)CC3)ccc12 [Example 244, 1-(methylamino)-N-(1-methylcyclopropyl)-3-[(3-methylisoxazol-5-yl)methyl]-4-oxo-phthalazine-6-sulfonamide]"
9,1.18 µM,"Cc1cc(Cn2nc(C)c3ccc(S(=O)(=O)NC4(C)CC4)cc3c2=O)on1 [Example 284, 1-methyl-N-(1-methylcyclopropyl)-3-[(3-methylisoxazol-5-yl)methyl]-4-oxo-phthalazine-6-sulfonamide]"
10,1.98 µM,"CNc1nn(C)c(=O)c2cc(S(=O)(=O)NC3(C)CC3)ccc12 [Example 234, 3-Methyl-1-(methylamino)-N-(1-methylcyclopropyl)-4-oxo-phthalazine-6-sulfonamide]"
11,1.28 µM,"Cc1cc(Cn2cc(C)c3ccc(S(=O)(=O)NC4(C)CC4)cc3c2=O)on1 [Example 256, 4-Methyl-N-(1-methylcyclopropyl)-2-[(3-methylisoxazol-5-yl)methyl]-1-oxo-isoquinoline-7-sulfonamide]"
12,0.795 µM,Cc1cc(Cn2nc(C(=O)NCC3CCOCC3)c3ccc(S(=O)(=O)NC4(C)CC4)cc3c2=O)on1 [Example 331]
13,3.04 µM,CCC1(NS(=O)(=O)c2ccc3c(c2)c(=O)n(Cc2cc(C)no2)c(=O)n3C)CC1 [Example 261]
14,0.781 µM,Cc1cc(Cn2nc(C(=O)NCC3CCN(C)CC3)c3ccc(S(=O)(=O)NC4(C)CC4)cc3c2=O)on1 [Example 333]
15,7.49 µM,Cn1c(=O)c2cc(S(=O)(=O)NC3(C)CC3)cc(F)c2n(C)c1=O [Example 225]
16,2.68 µM,"Cc1cc(Cn2cc(Br)c3ccc(S(=O)(=O)NC4(C)CC4)cc3c2=O)on1 [Example 307, 4-Bromo-N-(1-methylcyclopropyl)-2-[(3-methylisoxazol-5-yl)methyl]-1-oxo-isoquinoline-7-sulfonamide]"
17,1.23 µM,"COc1nn(Cc2cc(C)no2)c(=O)c2cc(S(=O)(=O)NC3(C)CC3)ccc12 [Example 312, 1-Methoxy-N-(1-methylcyclopropyl)-3-[(3-methylisoxazol-5-yl)methyl]-4-oxo-phthalazine-6-sulfonamide]"
18,8.63 µM,Cc1cc(Cn2nc(C(=O)N(C)C)c3ccc(S(=O)(=O)NC4(C)CC4)cc3c2=O)on1 [Example 326]
